The text below walks through data of patent US20120115845A1, “THERAPEUTIC AGENTS” (priority 2007, published 2012).

The target in assay [1] is T1, human GHS receptor (Homo sapiens, UniProt Q92847). Description: h bind IC50 (binding assay, Table 1). To be noted: human receptor; Table 1.
Assay [2] concerns the target T1, human GHS receptor. Kind of assay: Ghrelin IP1 agonist assay (IP1 HTRF). Type of assay: cell-based. More on the design: expressed in transfected cells; host or cells: HEK293s. The settings on record: for Emax: 2 h, agonist effect as % maximal effect of GHRP-6 (5 μM), read-out: h IP1 ag %; for pEC50: HEK293s cells stably expressing human GHS receptor, 2 hours at 37° C., read-out: h IP1 ag EC50. A digest of the protocol:
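Cells: HEK293s stably expressing human GHS receptor, in stimulation buffer containing 0.02% fatty acid free BSA.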

pEC50, pIC50: −log10 of the molar value. A value given as a limit tells only on which side of the number the result lay.

T1 sequence (Q92847 whole entry): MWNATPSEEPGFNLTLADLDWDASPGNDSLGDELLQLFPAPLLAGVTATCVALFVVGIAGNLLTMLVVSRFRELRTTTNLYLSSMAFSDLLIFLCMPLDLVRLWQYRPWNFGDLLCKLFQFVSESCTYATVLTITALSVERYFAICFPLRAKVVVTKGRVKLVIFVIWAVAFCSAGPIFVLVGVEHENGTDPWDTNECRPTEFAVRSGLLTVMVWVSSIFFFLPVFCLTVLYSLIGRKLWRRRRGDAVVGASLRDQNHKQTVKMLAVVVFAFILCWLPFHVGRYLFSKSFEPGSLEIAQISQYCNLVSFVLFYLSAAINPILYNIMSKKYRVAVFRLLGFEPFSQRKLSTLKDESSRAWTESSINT

As a reminder, the pIC50 is the negative decadic logarithm of the IC50, by convention in mol/L. High values mean a small IC50, low ones a large IC50. In general, pEC50 refers to −log10 of the EC50, conventionally taken in molar units. For the compound `CS(=O)(=O)c1ccc2nc(NC(=O)NC(=O)c3cc(N4CCOCC4)ccc3Cl)sc2c1` [Example 54, 2-Chloro-N-(6-(methylsulfonyl)benzothiazol-2-ylcarbamoyl)-5-morpholin-4-yl benzamide], the pIC50 in assay [1] is 8.00. In addition, in assay [2], the Emax was 0.0527% and the pEC50 was no more than 4.60.
`Cc1ccnn1-c1ccc(Cl)c(C(=O)NC(=O)Nc2nc3ccc(S(C)(=O)=O)cc3s2)c1` [Example 55, 2-Chloro-5-(5-methyl-1H-pyrazol-1-yl)-N-(6-(methylsulfonyl)benzothiazol-2-ylcarbamoyl)benzamide]: the negative logarithm of the IC50 (pIC50) in assay [1] was 7.64. In addition, in assay [2], the Emax amounted to 48.9% and the pEC50 is 8.24.
In the same order, the values of `Cc1ccn(-c2ccc(Cl)c(C(=O)NC(=O)Nc3nc4ccc(S(C)(=O)=O)cc4s3)c2)n1` [Example 56, 2-Chloro-5-(3-methyl-1H-pyrazol-1-yl)-N-(6-(methylsulfonyl)benzothiazol-2-ylcarbamoyl)benzamide] are 8.00, 10.8% and no more than 4.60.
In the same order, the values of `CS(=O)(=O)c1ccc2nc(NC(=O)NC(=O)c3cc(-c4ncccn4)ccc3Cl)sc2c1` [Example 57, 2-Chloro-N-(6-(methylsulfonyl)benzothiazol-2-ylcarbamoyl)-5-(pyrimidin-2-yl)benzamide] are 6.79, 0% and less than 4.60.
Take `CS(=O)(=O)Oc1ccc(Cl)c(C(=O)NC(=O)Nc2nc3ccc(S(C)(=O)=O)cc3s2)c1` [Example 58, 4-Chloro-3-(6-(methylsulfonyl)benzothiazol-2-ylcarbamoylcarbamoyl)phenyl methanesulfonate]: the pIC50 in assay [1] is 5.88. In assay [2], the Emax amounted to 8.82% and the pEC50 is 5.52.
Compound `CN1CCN(c2ccc(Cl)c(C(=O)NC(=O)Nc3nc4ccc(S(C)(=O)=O)cc4s3)c2)CC1` [Example 59, 2-Chloro-5-(4-methylpiperazin-1-yl)-N-(6-(methylsulfonyl)benzothiazol-2-ylcarbamoyl)benzamide] gave a pIC50 in assay [1] of 6.68. In assay [2], the Emax worked out at 0.377% and the pEC50 was less than 5.03.
In the same order, the values of `CN(C)C1CCN(c2ccc(Cl)c(C(=O)NC(=O)Nc3nc4ccc(S(C)(=O)=O)cc4s3)c2)C1` (stereo not drawn) [Example 60, 2-Chloro-5-(3-(dimethylamino)pyrrolidin-1-yl)-N-(6-(methylsulfonyl)benzothiazol-2-ylcarbamoyl)benzamide] are 7.48, 0.647% and less than 4.60.
The compound `C#Cc1ccc(Cl)c(C(=O)NC(=O)Nc2nc3ccc(S(C)(=O)=O)cc3s2)c1` [Example 61, 2-Chloro-5-ethynyl-N-(6-(methylsulfonyl)benzothiazol-2-ylcarbamoyl)benzamide] gave a pIC50 in assay [1] of 6.79. Further, in assay [2], the Emax is 0.276% and the pEC50 was less than 4.60.
The corresponding values for `CS(=O)(=O)c1ccc2nc(NC(=O)NC(=O)c3cc(CN4CCCC4)ccc3Cl)sc2c1` [Example 62, 2-Chloro-5-pyrrolidin-1-ylmethyl-N-(6-(methylsulfonyl)benzothiazol-2-ylcarbamoyl)benzamide] are 5.76, 9.06% and no more than 4.60.
The corresponding values for `CN(C)CCOc1ccc(Cl)c(C(=O)NC(=O)Nc2nc3ccc(S(C)(=O)=O)cc3s2)c1` [Example 63, 2-Chloro-5-(2-(dimethylamino)ethoxy)-N-(6-(methylsulfonyl)benzothiazol-2-ylcarbamoyl)benzamide] are 5.56, 31.8% and 7.21.
The corresponding values for `CS(=O)(=O)c1ccc2nc(NC(=O)NC(=O)c3cc(Cl)ccc3Cl)sc2c1` [Example 64, 2,5-Dichloro-N-[(6-methylsulfonylbenzothiazol-2-yl)carbamoyl]benzamide] are 6.86, 8.74% and 7.72.
As to `Cc1ccc(Cl)c(C(=O)NC(=O)Nc2nc3ccc(S(C)(=O)=O)cc3s2)c1` [Example 65, 2-Chloro-5-methyl-N-(6-(methylsulfonyl)benzothiazol-2-ylcarbamoyl)benzamide], in assay [1], the pIC50 is 6.57. In addition, in assay [2], the Emax turned out to be 8.23% and the pEC50 is 7.09.
The corresponding values for `CS(=O)(=O)c1ccc2nc(NC(=O)NC(=O)c3cc(-n4cccc4)ccc3Cl)sc2c1` [Example 66, 2-Chloro-N-[(6-methylsulfonylbenzothiazol-2-yl)carbamoyl]-5-pyrrol-1-yl-benzamide] are 7.64, 0% and no more than 4.60.
The corresponding values for `CS(=O)(=O)c1ccc2nc(NC(=O)NC(=O)c3cc(-n4cncn4)ccc3Cl)sc2c1` [Example 67, 2-Chloro-N-(6-(methylsulfonyl)benzothiazol-2-ylcarbamoyl)-5-(1H-1,2,4-triazol-1-yl)benzamide] are 6.27, 0% and less than 4.70.
In the same order, the values of `CS(=O)(=O)c1ccc2nc(NC(=O)NC(=O)c3cc(-c4cncs4)ccc3Cl)sc2c1` [Example 68, 2-chloro-N-(6-(methylsulfonyl)benzothiazol-2-ylcarbamoyl)-5-(thiazol-5-yl)benzamide] are 7.36, 0% and less than 4.60.
Compound `CS(=O)(=O)c1ccc2nc(NC(=O)NC(=O)c3cc(-n4ccnc4)ccc3Cl)sc2c1` [Example 69, 2-Chloro-5-(1H-imidazol-1-yl)-N-(6-(methylsulfonyl)benzothiazol-2-ylcarbamoyl)benzamide] showed a pIC50 in assay [1] of 7.43. Further, in assay [2], the Emax stood at 14.1% and the pEC50 was 5.52.
The corresponding values for `CS(=O)(=O)c1ccc2nc(NC(=O)NC(=O)c3cc([N+](=O)[O-])ccc3Cl)sc2c1` [Example 70, 2-Chloro-N-(6-(methylsulfonyl)benzothiazol-2-ylcarbamoyl)-5-nitrobenzamide] are 6.85, 0.5% and 6.41.
In the same order, the values of `CCN(CC)CCCS(=O)(=O)c1ccc2nc(NC(=O)NC(=O)c3cc(-n4cccc4)ccc3Cl)sc2c1` [Example 71, 2-Chloro-N-[[6-(3-diethylaminopropylsulfonyl)benzothiazol-2-yl]carbamoyl]-5-pyrrol-1-yl-benzamide] are 9.40, 0.0469% and no more than 4.60.
On to `O=C(NC(=O)c1cc(-n2cccc2)ccc1Cl)Nc1nc2ccc(S(=O)(=O)CCCNCC3CC3)cc2s1` [Example 72, 2-Chloro-N-[[6-[3-(cyclopropylmethylamino)propylsulfonyl]benzothiazol-2-yl]carbamoyl]-5-pyrrol-1-yl-benzamide], for which the pIC50 in assay [1] was 9.52. Further, in assay [2], the Emax was 6.6% and the pEC50 is 5.22.
In the same order, the values of `O=C(NC(=O)c1cc(-n2cccc2)ccc1Cl)Nc1nc2ccc(S(=O)(=O)CCCN3CCNCC3)cc2s1` [Example 73, 2-Chloro-N-[[6-(3-piperazin-1-ylpropylsulfonyl)benzothiazol-2-yl]carbamoyl]-5-pyrrol-1-yl-benzamide] are 8.89, 2.25% and no more than 4.60.
In the same order, the values of `O=C(NC(=O)c1cc(-n2cccc2)ccc1Cl)Nc1nc2ccc(S(=O)(=O)[C@H]3CCNC3)cc2s1` [Example 77, 2-Chloro-N-[[6-[(3S)-pyrrolidin-3-yl]sulfonylbenzothiazol-2-yl]carbamoyl]-5-pyrrol-1-yl-benzamide] are 8.77, 0.911% and no more than 4.60.
In the same order, the values of `O=C(NC(=O)c1cc(-n2cccc2)ccc1Cl)Nc1nc2ccc(S(=O)(=O)[C@@H]3CCNC3)cc2s1` [Example 78, 2-Chloro-N-[[6-[(3R)-pyrrolidin-3-yl]sulfonylbenzothiazol-2-yl]carbamoyl]-5-pyrrol-1-yl-benzamide] are 9.10, 0.81% and 5.37.
Take `O=C(NC(=O)c1cc(-n2cccc2)ccc1Cl)Nc1nc2ccc(S(=O)(=O)CCN3CCNCC3)cc2s1` [Example 79, 2-Chloro-N-[[6-(2-piperazin-1-ylethylsulfonyl)benzothiazol-2-yl]carbamoyl]-5-pyrrol-1-yl-benzamide]: the pIC50 in assay [1] was 9.22. In assay [2], the Emax was determined as 1.95% and the negative logarithm of the EC50 (pEC50) was no more than 4.60.
The corresponding values for `COCCNCCS(=O)(=O)c1ccc2nc(NC(=O)NC(=O)c3cc(-n4cccc4)ccc3Cl)sc2c1` [Example 80, 2-Chloro-N-[[6-[2-(2-methoxyethylamino)ethylsulfonyl]benzothiazol-2-yl]carbamoyl]-5-pyrrol-1-yl-benzamide] are 8.66, 9.77% and no more than 4.60.
The corresponding values for `CC(C)NCCS(=O)(=O)c1ccc2nc(NC(=O)NC(=O)c3cc(-n4cccc4)ccc3Br)sc2c1` [Example 83, 2-Bromo-N-(6-(2-(isopropylamino)ethylsulfonyl)benzothiazol-2-ylcarbamoyl)-5-(1H-pyrrol-1-yl)benzamide] are 8.89, 0% and no more than 4.60.
For `CN1CCN(CCCS(=O)(=O)c2ccc3nc(NC(=O)NC(=O)c4cc(-n5cccc5)ccc4Cl)sc3c2)CC1` [Example 85, 2-Chloro-N-(6-(3-(4-methylpiperazin-1-yl)propylsulfonyl)benzothiazol-2-ylcarbamoyl)-5-(1H-pyrrol-1-yl)benzamide], in assay [1], the pIC50 was 9.70. For the same compound, in assay [2], the Emax turned out to be 0.18% and the pEC50 was no more than 4.60.
